Test results published in US9695155B2, “Herbicidal substituted pyrimidinyloxy benzene compounds” (E. I. DU PONT DE NEMOURS AND COMPANY, priority 2013, dated 2017).

Columns and labels:
[1] = test system: sedge, umbrella; assay: Test B flooded paddy test; type: in vivo, Cyperus difformis; settings: Flood, 250 g ai/ha; 0 to 100 scale where 0 is no effect and 100 is complete control
In short: (§1)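 2-leaf stage plants; pots flooded to 3 cm, compound added to paddy water, depth maintained. Greenhouse 13–15 d. Visual rating vs untreated controls, 0 (no effect) to 100 (complete control); dash = no result.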

[2] = test system: giant foxtail; assay: Test A postemergence; type: in vivo, Setaria faberii
In short: (§2)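 Visual injury scored 0–100 (100 = complete control) against untreated controls about 10 days after treatment in a greenhouse. Test chemicals, formulated with surfactant in non-phytotoxic solvent, were sprayed on soil preemergence or on 2-10 cm, one- to two-leaf plants postemergence.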

[3] = test system: giant foxtail; assay: Test A preemergence; type: in vivo, Setaria faberii; settings: for Plant response rating, Foxtail, Giant: 125 g ai/ha, 0 to 100 scale where 0 is no effect and 100 is complete control; for Foxtail, Giant plant response rating: 500 g ai/ha, 0 to 100 scale, 0 no effect, 100 complete control, approx. 10 days
In short: as §2

[4] = test system: barnyardgrass; assay: Test B flooded paddy test; type: in vivo, Echinochloa crus-galli; settings: Flood, 250 g ai/ha; 0 to 100 scale where 0 is no effect and 100 is complete control
In short: as §1

[5] = test system: velvetleaf; assay: Test A postemergence; type: in vivo, Abutilon theophrasti
In short: as §2

[6] = test system: Heteranthera limosa; assay: Test B flooded paddy test; type: in vivo; settings: Flood, 250 g ai/ha; 0 to 100 scale where 0 is no effect and 100 is complete control
In short: as §1

[7] = test system: wheat; assay: Test A postemergence; type: in vivo, Triticum aestivum
In short: as §2

[8] = test system: large (Lg) crabgrass; assay: Test A postemergence; type: in vivo, Digitaria sanguinalis
In short: as §2

[9] = test system: morningglory; assay: Test A preemergence; type: in vivo, Ipomoea spp.; settings: for Plant response rating, Morningglory: 125 g ai/ha, 0 to 100 scale where 0 is no effect and 100 is complete control; for Morningglory plant response rating: 500 g ai/ha, 0 to 100 scale, 0 no effect, 100 complete control, approx. 10 days
In short: as §2

[10] = test system: morningglory; assay: Test A postemergence; type: in vivo, Ipomoea spp.
In short: as §2

[11] = test system: pigweed; assay: Test A postemergence; type: in vivo, Amaranthus retroflexus
In short: as §2

[12] = test system: corn; assay: Test A preemergence; type: in vivo, Zea mays; settings: for Plant response rating, Corn: 125 g ai/ha, 0 to 100 scale where 0 is no effect and 100 is complete control; for Corn plant response rating: 500 g ai/ha, 0 to 100 scale, 0 no effect, 100 complete control, approx. 10 days
In short: as §2

[13] = test system: wheat; assay: Test A preemergence; type: in vivo, Triticum aestivum; settings: for Plant response rating, Wheat: 125 g ai/ha, 0 to 100 scale where 0 is no effect and 100 is complete control; for Wheat plant response rating: 500 g ai/ha, 0 to 100 scale, 0 no effect, 100 complete control, approx. 10 days
In short: as §2

[14] = test system: large (Lg) crabgrass; assay: Test A preemergence; type: in vivo, Digitaria sanguinalis; settings: for Plant response rating, Crabgrass, Large: 125 g ai/ha, 0 to 100 scale where 0 is no effect and 100 is complete control; for Crabgrass, Large plant response rating: 500 g ai/ha, 0 to 100 scale, 0 no effect, 100 complete control, approx. 10 days
In short: as §2

[15] = test system: rice; assay: Test B flooded paddy test; type: in vivo, Oryza sativa; settings: Flood, 250 g ai/ha; 0 to 100 scale where 0 is no effect and 100 is complete control
In short: as §1

[16] = test system: corn; assay: Test A postemergence; type: in vivo, Zea mays
In short: as §2

[17] = test system: velvetleaf; assay: Test A preemergence; type: in vivo, Abutilon theophrasti; settings: for Plant response rating, Velvetleaf: 125 g ai/ha, 0 to 100 scale where 0 is no effect and 100 is complete control; for Velvetleaf plant response rating: 500 g ai/ha, 0 to 100 scale, 0 no effect, 100 complete control, approx. 10 days
In short: as §2

[18] = test system: barnyardgrass; assay: Test A postemergence; type: in vivo, Echinochloa crus-galli
In short: as §2

[19] = test system: barnyardgrass; assay: Test A preemergence; type: in vivo, Echinochloa crus-galli; settings: for Plant response rating, Barnyardgrass: 125 g ai/ha, 0 to 100 scale where 0 is no effect and 100 is complete control; for Barnyardgrass plant response rating: 500 g ai/ha, 0 to 100 scale, 0 no effect, 100 complete control, approx. 10 days
In short: as §2

[20] = test system: pigweed; assay: Test A preemergence; type: in vivo, Amaranthus retroflexus; settings: for Plant response rating, Pigweed: 125 g ai/ha, 0 to 100 scale where 0 is no effect and 100 is complete control; for Pigweed plant response rating: 500 g ai/ha, 0 to 100 scale, 0 no effect, 100 complete control, approx. 10 days
In short: as §2

[21] = 125 g ai/ha, 0 to 100 scale where 0 is no effect and 100 is complete control
[22] = 500 g ai/ha, 0 to 100 scale, 0 no effect, 100 complete control

Compound	Plant response rating, Sedge, Umbrella [1]	Plant response rating, Foxtail, Giant [2, 21]	Plant response rating, Foxtail, Giant [2, 22]	Plant response rating, Foxtail, Giant [3]	Foxtail, Giant plant response rating [3]	Plant response rating, Barnyardgrass [4]	Plant response rating, Velvetleaf [5, 22]	Plant response rating, Ducksalad [6]	Plant response rating, Wheat [7, 21]	Plant response rating, Wheat [7, 22]	Plant response rating, Crabgrass, Large [8, 21]	Plant response rating, Crabgrass, Large [8, 22]	Plant response rating, Morningglory [9]	Morningglory plant response rating [9]	Plant response rating, Morningglory [10, 21]	Plant response rating, Morningglory [10, 22]	Plant response rating, Pigweed [11, 21]	Plant response rating, Pigweed [11, 22]	Plant response rating, Corn [12]	Corn plant response rating [12]	further results
Cc1cnn(-c2ccccc2Oc2ncc(Cl)cn2)c1 [Compound 23]	70	40	90	70	90	20	100	80	0	20	20	60	0	0	50	90	90	100	0	20	Plant response rating, Velvetleaf [5, 21]: 80; Plant response rating, Wheat [13]: 0; Wheat plant response rating [13]: 0; Plant response rating, Crabgrass, Large [14]: 90; Crabgrass, Large plant response rating [14]: 90; Plant response rating, Rice [15]: 35; Plant response rating, Corn [16, 21]: 0; Plant response rating, Corn [16, 22]: 60; Plant response rating, Velvetleaf [17]: 90; Velvetleaf plant response rating [17]: 90; Plant response rating, Barnyardgrass [18, 21]: 0; Plant response rating, Barnyardgrass [18, 22]: 40; Plant response rating, Barnyardgrass [19]: 20; Barnyardgrass plant response rating [19]: 50; Plant response rating, Pigweed [20]: 100; Pigweed plant response rating [20]: 100
Brc1cnc(Oc2ccccc2-n2cc(Br)c(Br)n2)nc1 [Compound 24]	60	0	0	0	0	0	0	0	0	0	0	0	0	0	0	0	0	60	0	0	Plant response rating, Wheat [13]: 0; Wheat plant response rating [13]: 0; Plant response rating, Crabgrass, Large [14]: 0; Crabgrass, Large plant response rating [14]: 0; Plant response rating, Rice [15]: 35; Plant response rating, Corn [16, 21]: 0; Plant response rating, Corn [16, 22]: 0; Plant response rating, Velvetleaf [17]: 0; Velvetleaf plant response rating [17]: 0; Plant response rating, Barnyardgrass [18, 21]: 0; Plant response rating, Barnyardgrass [18, 22]: 0; Plant response rating, Barnyardgrass [19]: 0; Barnyardgrass plant response rating [19]: 0; Plant response rating, Pigweed [20]: 0; Pigweed plant response rating [20]: 0
